Measurements: patent US20250034173A1, “PYRIDO[4,3-D]PYRIMIDINE COMPOUNDS” (PFIZER INC., priority 2023, published 2025)

Legend:
KRAS Wild Type = KRAS Wild Type (Homo sapiens (Human), UniProt P01116); assay: SPR binding affinity and kinetics, GTPγS-loaded KRAS Wild Type; conditions: GTPγS loaded protein, geomean
Source text: (§1) No additional regeneration was used.
(§2) Compound dissociation was monitored for at least 3600 seconds. […] No additional regeneration was used.
(§3) The adequateness of the fit was judged by c2 values and the randomness of residue distribution.

KRAS G12D = KRAS G12D (Homo sapiens (Human), UniProt P01116, G12D); assay: SPR binding affinity and kinetics, GTPγS-loaded KRAS G12D; conditions: GTPγS loaded protein, geomean
Source text: as §1, §2, §3

KRAS G12C = KRAS G12C (Homo sapiens (Human), UniProt P01116, G12C); assay: SPR binding affinity and kinetics, GTPγS-loaded KRAS G12C; conditions: GTPγS loaded protein, geomean
Source text: as §1, §2, §3

KRAS G12V = KRAS G12V (Homo sapiens (Human), UniProt P01116, G12V); assay: SPR binding affinity and kinetics, GTPγS-loaded KRAS G12V; conditions: GTPγS loaded protein, geomean
Source text: as §1, §2, §3

[1] = tested on: H358 (non-small cell lung cancer cell line); assay: KRAS Cell Titer Glo (CTG) cell proliferation assay, H358; assay type: cell-based; conditions: Homo sapiens, NCI-H358, 168 h; H358 cells, 7-day CTG, geomean IC50
Source text: (§4) The CellTiter-Glo® (CTG) Luminescent Cell Viability Assay is a homogeneous method of determining the number of viable cells in culture based on quantitation of the ATP present, an indicator of metabolically active cells. The CTG is designed for use with multi-well formats, making it ideal for automated high-throughput screening (HTS), cell proliferation and cytotoxicity assays. The homogeneous assay procedure involves adding the single reagent (CellTiter-Glo® Reagent) directly to cells cultured in serum-supplemented medium. Cell washing, removal of medium and multiple pipetting steps are not required. The system detects as few as 15 cells per well in a 384-well format in 10 minutes after adding reagent and mixing.
(§5) Cells are grown in humidified 5% CO2 incubator at 37° C. using the culture conditions outlined below. All cell culture media reagents were purchased from Gibco. Cell lines purchased from ATCC: H358 (non-small cell lung cancer cell line), SW620 (colorectal cancer cell line), PANC08.13 (RPM11640+10% FBS+10 units/mL Insulin, pancreatic cancer cell line). Test and control compounds are dispensed as nanoliter drops according to desired final concentrations in 0.1% DMSO using Echo Acoustic Dispenser onto 384 assay plates (Corning, Cat #3764) prior to cell seeding. Cells were seeded in 40 μL volume per well at the following cell densities (cells per well): H358 (300), SW620 (750), PANC 08.13 (600). Cells are incubated in the presence of compound for 7-days. Viability is determined on Day 7 using CellTiter-Glo® (CTG) Luminescent Cell Viability Assay (Promega). CTG is added to a […] per well and incubated at room temperature for 15 minutes before luminescence is captured using an EnVision Reader with LUM384 US protocol. Data is analyzed using Activity Base to determine compound response and will be represented either as a percent effect (PCTEFF) or percent control (PCTOCTL) as described: Zero percent effect control (ZPE) (Negative control)—100% DMSO. Hundred percent effect (HPE) (Positive control)—1 uM Trametinib (GSK1120212, MEK inhibitor) (4 nl of 10 mM and 36 nl of DMSO per well). The following equations/nomenclature are used (% Effect; PCTEFF) and (% of Control; PCTOCTL): PCTEFF: 100*(Raw_Data_Value−HPE/ZPE−HPE), PCTOCTL: 100*Raw_Data_Value/User_Defined_Array), where the User_Defined_Array is either summarized HPE or ZPE.
(§6) Cells with “nd” indicate compound not tested in that particular assay at time of writing. It is to be understood that the geomean IC50 data may change slightly over time with increasing repeat data (ie: increasing n #).

[2] = tested on: SW620 (colorectal cancer cell line); assay: KRAS Cell Titer Glo (CTG) cell proliferation assay, SW620; assay type: cell-based; conditions: Homo sapiens, SW-620, 168 h; SW620 cells, 7-day CTG, geomean IC50
Source text: as §4, §5, §6

[3] = tested on: PANC08.13 (pancreatic cancer cell line); assay: KRAS Cell Titer Glo (CTG) cell proliferation assay, PANC08.13; assay type: cell-based; conditions: Homo sapiens, PANC-08-13, 168 h; PANC08.13 cells, 7-day CTG, geomean IC50
Source text: as §4, §5, §6

Sequence of KRAS Wild Type (P01116 other isoform, or with tags, fused parts or gaps): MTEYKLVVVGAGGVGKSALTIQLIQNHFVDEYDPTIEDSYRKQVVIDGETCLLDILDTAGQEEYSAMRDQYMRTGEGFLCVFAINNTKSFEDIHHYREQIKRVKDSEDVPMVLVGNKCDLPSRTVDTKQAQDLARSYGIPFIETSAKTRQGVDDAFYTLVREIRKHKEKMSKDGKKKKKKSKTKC
Sequence of KRAS G12D (P01116 other isoform, or with tags, fused parts or gaps G12D): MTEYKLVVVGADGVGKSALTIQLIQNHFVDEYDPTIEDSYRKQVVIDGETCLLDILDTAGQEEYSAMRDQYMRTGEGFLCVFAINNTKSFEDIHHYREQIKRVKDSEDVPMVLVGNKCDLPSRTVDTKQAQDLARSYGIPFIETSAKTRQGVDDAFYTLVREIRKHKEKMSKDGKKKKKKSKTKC
Sequence of KRAS G12V (P01116 other isoform, or with tags, fused parts or gaps G12V): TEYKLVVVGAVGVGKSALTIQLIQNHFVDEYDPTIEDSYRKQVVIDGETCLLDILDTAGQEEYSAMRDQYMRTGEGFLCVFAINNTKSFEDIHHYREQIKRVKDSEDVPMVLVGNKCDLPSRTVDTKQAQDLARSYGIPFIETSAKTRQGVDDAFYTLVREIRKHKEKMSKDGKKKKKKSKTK
Sequence of KRAS G12C (P01116 other isoform, or with tags, fused parts or gaps G12C): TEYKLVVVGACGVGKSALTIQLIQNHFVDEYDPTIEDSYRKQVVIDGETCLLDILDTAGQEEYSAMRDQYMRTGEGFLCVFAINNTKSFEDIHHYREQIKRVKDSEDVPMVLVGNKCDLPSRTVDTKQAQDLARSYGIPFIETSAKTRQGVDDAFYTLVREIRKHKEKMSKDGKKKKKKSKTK

Structure (SMILES)	Kd (KRAS Wild Type)	Kd (KRAS G12D)	Kd (KRAS G12C)	Kd (KRAS G12V)	IC50 [1]	IC50 [2]	IC50 [3]
COC/C=C1/CN2CCC[C@@]2(COc2nc3c4c(nc(-c5c(C6CC6)c(Cl)cc6[nH]ncc56)c(F)c4n2)OC[C@@H]2COCCCN32)C1 (relative stereo) [Example 48, (8aS)-5-(6-chloro-5-cyclopropyl-1H-indazol-4-yl)-4-fluoro-2-{[(2E,7aS*)-2-(2-methoxyethylidene)tetrahydro-1H-pyrrolizin-7a(5H)-yl]methoxy}-8a,9,12,13-tetrahydro-8H,11H-7,10-dioxa-1,3,6,13a-tetraazanaphtho[1,8-ab]heptalene]	65 nM	35 nM	72 nM	41 nM	–	–	–
COC/C=C1/CN2CCC[C@@]2(COc2nc3c4c(nc(-c5c(C6CC6)c(Cl)cc6[nH]ncc56)c(F)c4n2)OC[C@@H]2COCCCN32)C1 (relative stereo) [Example 49, (8aS)-5-(6-chloro-5-cyclopropyl-1H-indazol-4-yl)-4-fluoro-2-{[(2E,7aR*)-2-(2-methoxyethylidene)tetrahydro-1H-pyrrolizin-7a(5H)-yl]methoxy}-8a,9,12,13-tetrahydro-8H,11H-7,10-dioxa-1,3,6,13a-tetraazanaphtho[1,8-ab]heptalene]	63 nM	41 nM	73 nM	58 nM	–	–	–
COC/C=C1\CN2CCC[C@@]2(COc2nc3c4c(nc(-c5c6c(cc7[nH]ncc57)CCC[C@H]6OC)c(F)c4n2)OC[C@@H]2COCCCN32)C1 (relative stereo) [Example 59, (8aS)-4-fluoro-2-{[(2Z,7aS)-2-(2-methoxyethylidenetetrahydro-1H-pyrrolizin-7a(5H)-yl]methoxy}-5-[(5R*)-5-methoxy-5,6,7,8-tetrahydro-1H-benzo[f]indazol-4-yl]-8a,9,12,13-tetrahydro-8H,11H-7,10-dioxa-1,3,6,13a-tetraazanaphtho[1,8-ab]heptalene]	> 1000 nM	> 1000 nM	> 1000 nM	> 1000 nM	–	–	–
C=C1CN2CCC[C@@]2(COc2nc3c4c(nc(-c5c6c(cc7[nH]ncc57)CCC[C@H]6OC)c(F)c4n2)OC[C@@H]2COCCCN32)C1 (single isomer, unassigned) [Example 57, (8aS)-4-fluoro-5-[(5R*)-5-methoxy-5,6,7,8-tetrahydro-1H-benzo[f]indazol-4-yl]-2-{[(7aS)-2-methylidenetetrahydro-1H-pyrrolizin-7a(5H)-yl]methoxy}-8a,9,12,13-tetrahydro-8H,11H-7,10-dioxa-1,3,6,13a-tetraazanaphtho[1,8-ab]heptalene]	> 1000 nM	> 1000 nM	> 1000 nM	> 1000 nM	–	–	–
C=C1CN2CCC[C@@]2(COc2nc3c4c(nc(-c5c(Cl)c(C)cc6[nH]ncc56)c(F)c4n2)OC[C@@H]2COCCCN32)C1 [Example 8]	117 nM	141 nM	176 nM	105 nM	263 nM	294 nM	48 nM

Now those with a lower Kd (KRAS Wild Type), led by results:

Kd (KRAS Wild Type)	Kd (KRAS G12D)	Kd (KRAS G12C)	Kd (KRAS G12V)	IC50 [1]	IC50 [2]	IC50 [3]	Structure (SMILES)
3 nM	1 nM	3 nM	2 nM	19 nM	32 nM	20 nM	C=C1CN2CC[C@@H](O)[C@@]2(COc2nc3c4c(nc(-c5c(C6CC6)c(Cl)cc6[nH]ncc56)c(F)c4n2)OC[C@@H]2COCCCN32)C1 (relative stereo) [Example 45, (1R,7aS*)-7a-({[(8aS)-5-(6-chloro-5-cyclopropyl-1H-indazol-4-yl)-4-fluoro-8a,9,12,13-tetrahydro-8H,11H-7,10-dioxa-1,3,6,13a-tetraazanaphtho[1,8-ab]heptalen-2-yl]oxy}methyl)-6-methylidenehexahydro-1H-pyrrolizin-1-ol]
4 nM	2 nM	3 nM	4 nM	51 nM	102 nM	4 nM	C=C1CN2CCC[C@@]2(COc2nc3c4c(nc(-c5c([C@@H]6C[C@@H]6C)c(Cl)cc6[nH]ncc56)c(F)c4n2)OC[C@@H]2COCCCN32)C1 (single isomer, unassigned) [Example 30, (8aS)-5-{6-chloro-5-[(1R*,2S*)-2-methylcyclopropyl]-1H-indazol-4-yl}-4-fluoro-2-{[(7aS)-2-methylidenetetrahydro-1H-pyrrolizin-7a(5H)-yl]methoxy}-8a,9,12,13-tetrahydro-8H,11H-7,10-dioxa-1,3,6,13a-tetraazanaphtho[1,8-ab]heptalene]
10 nM	6 nM	7 nM	5 nM	54 nM	115 nM	11 nM	C=C1CN2CCC[C@@]2(COc2nc3c4c(nc(-c5c([C@H]6C[C@H]6C)c(Cl)cc6[nH]ncc56)c(F)c4n2)OC[C@@H]2COCCCN32)C1 (single isomer, unassigned) [Example 31, (8aS)-5-{6-chloro-5-[(1S*,2R*)-2-methylcyclopropyl]-1H-indazol-4-yl}-4-fluoro-2-{[(7aS)-2-methylidenetetrahydro-1H-pyrrolizin-7a(5H)-yl]methoxy}-8a,9,12,13-tetrahydro-8H,11H-7,10-dioxa-1,3,6,13a-tetraazanaphtho[1,8-ab]heptalene]
12 nM	6 nM	8 nM	7 nM	27 nM	40 nM	10 nM	C=C1CN2CCC[C@@]2(COc2nc3c4c(nc(-c5c([C@@H]6C[C@H]6C)c(Cl)cc6[nH]ncc56)c(F)c4n2)OC[C@@H]2COCCCN32)C1 (single isomer, unassigned) [Example 51, (8aS)-5-{6-chloro-5-[(1R*,2R*)-2-methylcyclopropyl]-1H-indazol-4-yl}-4-fluoro-2-{[(7aS)-2-methylidenetetrahydro-1H-pyrrolizin-7a(5H)-yl]methoxy}-8a,9,12,13-tetrahydro-8H,11H-7,10-dioxa-1,3,6,13a-tetraazanaphtho[1,8-ab]heptalene]
23 nM	34 nM	10 nM	23 nM	172 nM	63 nM	135 nM	C=C1CN2CCC[C@@]2(COc2nc3c4c(nc(-c5c6c(cc7[nH]ncc57)CCC[C@H]6OC)c(F)c4n2)OC[C@@H]2COCCCN32)C1 (single isomer, unassigned) [Example 56, (8aS)-4-fluoro-5-[(5R*)-5-methoxy-5,6,7,8-tetrahydro-1H-benzo[f]indazol-4-yl]-2-{[(7aS)-2-methylidenetetrahydro-1H-pyrrolizin-7a(5H)-yl]methoxy}-8a,9,12,13-tetrahydro-8H,11H-7,10-dioxa-1,3,6,13a-tetraazanaphtho[1,8-ab]heptalene]
34 nM	28 nM	15 nM	24 nM	173 nM	139 nM	22 nM	C=C1CN2CCC[C@@]2(COc2nc3c4c(nc(-c5c(C)c(Cl)cc6[nH]ncc56)c(F)c4n2)OC[C@@H]2COCCCN32)C1 [Example 7, (8aS)-5-(6-chloro-5-methyl-1H-indazol-4-yl)-4-fluoro-2-{[(7aS)-2-methylidenetetrahydro-1H-pyrrolizin-7a(5H)-yl]methoxy}-8a,9,12,13-tetrahydro-8H,11H-7,10-dioxa-1,3,6,13a-tetraazanaphtho[1,8-ab]heptalene]
